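Following 48 hours of exposure in 96-well plates, responses at five concentrations were used to interpolate endpoints linearly. GI50: concentration for 50% inhibition of growth. TGI marks complete inhibition of growth.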
Legend:
Assay in all cases: NCI-60 cell line screen, 48 h
[1] = test system: TK-10 renal
[2] = test system: SNB-19 CNS
[3] = test system: COLO 205 colon
[4] = test system: 786-0 renal
[5] = test system: A549 NSCLC
[6] = test system: NCI-H226 lung
[7] = test system: SK-MEL-28 melanoma
[8] = test system: SF-295 CNS
[9] = test system: ACHN renal
[10] = test system: SW-620 colon

Compound	TGI [1] [µM]	TGI [2] [µM]	TGI [3] [µM]	TGI [4] [µM]	TGI [5] [µM]	TGI [6] [µM]	TGI [7] [µM]	TGI [8] [µM]	TGI [9] [µM]	TGI [10] [µM]	GI50 [1] [µM]	GI50 [2] [µM]	GI50 [8] [µM]	GI50 [9] [µM]	GI50 [10] [µM]	GI50 [3] [µM]	GI50 [6] [µM]	GI50 [7] [µM]
O=C(O)[C@H]1NC[C@@H]2ON=C(Br)[C@@H]21	> 100	> 100	> 100	> 100	> 100	> 100	> 100	> 100	> 100	> 100								
CC(C(O)c1ccccc1)[N+](=O)[O-] (configuration not stated)	72	66	80	> 100	40	48.3	41.5	61.4	33.7	> 100								
CN1CCN(c2ccc3nc(-c4ccc5nc(-c6ccc(N(C)CCCl)cc6)[nH]c5c4)[nH]c3c2)CC1	9.77	1.01	0.341	1.11	10.1	5.2	1.13	11.2	5.97	1.22								
COC(=O)Nc1nc2ccc(NS(=O)(=O)c3ccc(F)cc3)cc2[nH]1	87	> 100	37.8	> 100	> 100	> 100	> 100	70.4	> 100	> 100								
Cc1cc2nc(NS(=O)(=O)c3cc(C)c(Cl)cc3S)[nH]c2cc1C	> 100	> 100	> 100	> 100	> 100		> 100	> 100	> 100	> 100								
CCOC(=O)C1CCCC1S(=O)(=O)c1ccc(C)cc1 (configuration not stated)	> 100	> 100	> 100	> 100	> 100	> 100	> 100	> 100	> 100	> 100								
O=C(/C=C/c1ccsc1)c1ccc(Cl)s1	> 100	> 100	> 100		> 100	> 100	> 100	> 100	> 100	55.5								
COc1ccc(C2c3c(-c4ccccc4)nn(-c4ccccc4)c3Oc3ncn(N)c(=N)c32)cc1OC (configuration not stated)	4.24	19.9	3.53	3	4.81	7.44	4.29	4.34	3.69	> 25								
O=C(O)c1ccc(/C=N\N(CCO)C2=NCCN2)cc1	> 100	> 100	> 100	> 100	> 100	> 100	> 100	> 100	> 100	> 100								
COc1cc(OC)c(NC2=NCCO2)cc1Cl	> 100	> 100	38.2	90	> 100	75.6	> 100	> 100	> 100	> 100								
CCC(=O)n1c(=O)n(-c2ccc([N+](=O)[O-])cc2)c(=O)n1C(=O)CC	> 100	> 100	> 100	> 100	> 100	> 100	> 100	> 100	> 100	> 100								
O=C(/C=C\c1ccc(OCCCCCC[P+](c2ccccc2)(c2ccccc2)c2ccccc2)cc1)c1ccc2c(c1)OCCO2	3.81	1.74						3.46	3.29	2.55	1.58	0.462	1.78	1.79	1.11			
CN(c1ccccc1Cl)S(=O)(=O)c1ccccc1	> 100	> 100	> 100	> 100	> 100	> 100	> 100	> 100	> 100	> 100								
CC1(C)C(C(=O)OC(C#N)c2cccc(OCC(=O)OCc3ccccc3)c2)C1(C)C (configuration not stated)	> 100	> 100	> 100	> 100	> 100	> 100	> 100	> 100	> 100	> 100								
Cc1cc(C)c(N)c(C)c1N	> 100	> 100	> 100	> 100	> 100		> 100	> 100	> 100	> 100								
O=C1CSC(c2c(O)ccc3ccccc23)N1n1c(=S)[nH]nc(/C=C/c2c(O)ccc3ccccc23)c1=O (configuration not stated)	28.2	76.6		14.5	21.8			37.2	11.2	52.1								
CCCCCCCCCCOC1C(C(C)OCCCN(C)C)OC2OC3(CCCCC3)OC21 (configuration not stated)	38.6	25.5	14.6	30.9	30.8	38.1	25.5	32.7	31.4	27.1								
O=C(NN1C(=O)C(Cl)C1c1ccc([N+](=O)[O-])cc1)c1ccccc1O (configuration not stated)	> 100	> 100	> 100		> 100		> 100	> 100		> 100								
O=c1[nH]c2cc([N+](=O)[O-])c(N(CCO)CCO)c([N+](=O)[O-])c2[nH]1		> 100	51.8	> 100	> 100	71.4	91.8	> 100	> 100	> 100								
CN(C)S(=O)(=O)c1cccc(-c2nc3sc4c(c3c(=O)[nH]2)CCCC4)c1		> 100	> 100			> 100	> 100	4.01		> 100		2.91	1.35		1.78	> 100	2.38	> 100
O=C(O)C1C2CCC(C2)C1c1ccccc1 (configuration not stated)	> 100	> 100	> 100	> 100	> 100	> 100	> 100	> 100	> 100	> 100								

From PubChem BioAssay (NCI)
